From publication PMC3479139, “Diverse Small Molecule Inhibitors of Human Apurinic/Apyrimidinic Endonuclease APE1 Identified from a Screen of a Large Public Collection” (PLoS ONE, 2012)
Like-named read-outs stand apart in the source and are kept apart here.

Tests used:
E. coli Endo IV = target: T1, E. coli Endo IV (Escherichia coli, UniProt P0A6C1); assay: E. coli Endo IV profiling counterscreen; assay type: biochemical; details: for IC50: read-out: EndoIV IC50;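 for all read-outs here: selectivity counterscreen of candidate APE1 inhibitors against the bacterial endonuclease Endo IV, run in the same assay format as the primary APE1 high-throughput screen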
T1 construct: made in house
Source text: In order to screen out nonselective compounds, such as non-specific DNA binders and inhibitors of related enzymes, we used a miniaturized ThO DNA displacement assay and a counterscreen against the bacterial endonuclease E. coli Endo IV, respectively, following the previously published protocols [21].
To probe the selectivity of the candidate APE1 inhibitors, we tested them against E. coli EndoIV [36], employing the same assay as used in the HTS.

[1] = target: double-stranded 17-mer DNA fragment; assay: ThO (Thiazole Orange) DNA displacement assay; assay type: binding;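 note: miniaturized displacement of the intercalating dye from unlabeled duplex DNA, used to flag nonspecific DNA binders, chiefly intercalators, groove binders may be missed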
APE1 [2] = target: T2, APE1 (Homo sapiens, UniProt P27695); assay: Gel-based APE1 incision assay with fluorescence (TAMRA) detection; assay type: biochemical
T2 construct: made in house
T2 sequence (P27695 whole entry): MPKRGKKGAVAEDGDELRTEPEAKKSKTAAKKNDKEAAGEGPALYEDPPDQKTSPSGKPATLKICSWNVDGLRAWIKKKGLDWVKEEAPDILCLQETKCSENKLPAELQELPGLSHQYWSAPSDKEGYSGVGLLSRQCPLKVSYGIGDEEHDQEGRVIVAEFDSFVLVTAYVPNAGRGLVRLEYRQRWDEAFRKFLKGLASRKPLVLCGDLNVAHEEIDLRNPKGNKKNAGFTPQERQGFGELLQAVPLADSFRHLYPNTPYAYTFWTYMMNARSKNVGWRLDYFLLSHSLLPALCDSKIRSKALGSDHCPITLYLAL

APE1 [3] = target: T2, APE1; assay: Fluorogenic kinetic qHTS APE1 incision assay (primary screen and retest of cherrypicked samples); assay type: biochemical;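 note: purified APE1 cleaving a fluorophore/dark-quencher labelled 17-mer duplex DNA bearing a tetrahydrofuran AP site, fluorescence rise followed kinetically over the first 2 min, inhibition normalized to controls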
APE1 [4] = target: T2, APE1; assay: Fluorescence polarization (FP) displacement assay of APE1 binding to AP-DNA probe; details: read-out: FP IC50;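 note: TAMRA 5′-labeled duplex DNA with THF abasic site (5 nM) and APE1 (20 nM), Mg2+-free buffer, 15 min at room temperature, inhibition seen as lowered polarization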
APE1 [5] = target: T2, APE1; assay: Gel-based radiotracer (32P) APE1 incision assay; assay type: biochemical; set-up: concentration or dose not given beside the values; details: percent incision shown; entries 1-112;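 note: APE1 incision reactions ran 5 min at 37 °C, with cleaved product and intact substrate resolved electrophoretically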
[6] = initial quantitative high-throughput screen, read-out: APE1 qHTS IC50
[7] = retest of cherrypicked sample, read-out: APE1 Retest IC50
[8] = estimated IC50, fluorophore detection, entries 113-223, read-out: F-PAGE Assay IC50

Molecule | IC50 (E. coli Endo IV) [µM] | IC50 ([1]; read-out: ThO-DNA binding IC50) [µM] | IC50 (APE1 [2]; entries 113-223: fluorophore detection, estimated IC50, read-out: Gel-based electrophoretic separation assay with fluorophore detection, estimated IC50 (column headed Radiotracer Assay (%Activity))) [µM] | IC50 (APE1 [3]; [6]) [µM] | IC50 (APE1 [3]; [7]) [µM] | IC50 (APE1 [4]) [µM] | IC50 (APE1 [2]; [8]) [µM] | Radiotracer Assay (%Activity) (APE1 [5]) [%] | ThO assay signal behaviour (autofluorescence interference) [1] | Concentration response against EndoIV (E. coli Endo IV) | IC50 ([1]; read-out: ThO dye displacement IC50) [µM]
CCOC(=O)c1ccc2[nH]c(-c3ccc(S(=O)(=O)F)cc3)cc(=O)c2c1 [MLS000737558] | 36.3 | > 57 | 28.2 | 18.9 | 14.5 | 20.4 |  |  |  |  | 
Nc1nc(=S)c2ncn(C3OC(CO)C(O)C3O)c2[nH]1 (stereo not drawn) [MLS000738229] | > 57 | 28.9 |  | 13.4 | 3.6 | > 57 | 2.5 |  |  |  | 
NS(=O)(=O)c1ccc(N=Nc2ccc(=O)[nH]c2O)cc1 [MLS000738241] | > 57 | > 57 |  | 7.5 | 12.9 | > 57 | 3.5 |  |  |  | 
O=c1ccc2[n+]([O-])c3ccc([O-])cc3oc-2c1.[Na+] [MLS000778776] | 4.5 | > 57 |  | 25.1 | 12.4 | 0.02 |  | 5 |  |  | 
Cc1cc(/C=C2\C(=O)NC(=O)N(Cc3ccco3)C2=O)c(C)n1-c1ccc(C(=O)O)cc1 [MLS000807042] | > 57 | > 57 |  | 1.1 | 14.1 | > 57 |  | 33 |  |  | 
Cc1ccc(S(=O)(=O)Nc2csc(C)c2C(=O)O)cc1 [MLS000850015] | > 57 | > 57 |  | 11.2 | 15.8 | > 57 |  | 49 |  |  | 
O=c1cc(-c2ccc(O)cc2)oc2c(C3OCC(O)C(O)C3O)c(O)c(C3OC(CO)C(O)C(O)C3O)c(O)c12 (stereo not drawn) [MLS000876755] | > 57 | > 57 |  | 19.9 | 4.5 | > 57 |  | 31 |  |  | 
CC1OC(OCC2OC(Oc3c(-c4ccc(O)cc4)oc4cc(O)cc(O)c4c3=O)C(O)C(O)C2O)C(O)C(O)C1O (stereo not drawn) [MLS000876823] | > 57 | > 57 |  | 3.5 | 3.1 | > 57 |  | 30 |  |  | 
Cc1c(O)cc2c(c1O)C(=O)CC(c1ccc(O)cc1)O2 (stereo not drawn) [MLS000876957] | > 57 | > 57 |  | 1.6 | 4.5 | > 57 |  | 44 |  |  | 
CCC(C)C(=O)OCC1(c2ccc(C)cc2OC(=O)C(C)C)CO1 (stereo not drawn) [MLS000876981] | > 57 | > 57 |  | 8.9 | 11.2 | > 57 |  | 36 |  |  | 
COc1ccc(C(CC(=O)N2CCCCC2)c2c(OC)cc(OC)c3c(-c4ccccc4)cc(=O)oc23)cc1 (stereo not drawn) [MLS000879461] | > 57 | > 57 |  | 25.1 | 7.9 | 14.1 |  | 24 |  |  | 
CCN(CC)C(=O)CC(c1cc(OC)c(OC)c(OC)c1)c1c(OC)cc(OC)c2c(-c3ccccc3)cc(=O)oc12 (stereo not drawn) [MLS000879482] | > 57 | > 57 |  | 22.4 | 5 | 12.6 |  | 37 |  |  | 
Cc1ccc(C)c(S(=O)(=O)Nc2ccc3oc(C)c(C(=O)O)c3c2)c1 [MLS000948181] | > 57 | > 57 |  | 13.4 | 20.4 | > 57 | 2.8 |  |  |  | 
O=S(=O)(Nc1ccccc1)c1cccc2nsnc12 [MLS000999698] | > 57 | > 57 |  | 7.5 | 22.9 | 40.8 | 10 |  |  |  | 
O=C(NC1CC1)c1cc(-c2ccco2)nc2ccccc12 [MLS001005620] | > 57 | > 57 |  | 11.2 | 4.4 | > 57 |  | 17 |  |  | 
CC(=O)c1ccccc1NS(=O)(=O)c1cccc2nsnc12 [MLS001008046] | > 57 | > 57 |  | 5.3 | 8.1 | 28.9 | 5.6 |  |  |  | 
COC(=O)c1ccn(CC(=O)NC2CCCCC2)n1 [MLS001030262] | > 57 | > 57 |  | 29.9 | 12.9 | > 57 | 5.6 |  |  |  | 
CC(=O)Oc1cc2cccc(OC(C)=O)c(=O)c2c(OC(C)=O)c1OC(C)=O [MLS001049122] | > 57 | > 57 |  | 0.4 | 6.3 | > 57 |  | 37 |  |  | 

Molecule | IC50 (E. coli Endo IV) [µM] | IC50 ([1]; read-out: ThO-DNA binding IC50) [µM] | IC50 (APE1 [2]; entries 113-223: fluorophore detection, estimated IC50, read-out: Gel-based electrophoretic separation assay with fluorophore detection, estimated IC50 (column headed Radiotracer Assay (%Activity))) [µM] | IC50 (APE1 [3]; [6]) [µM] | IC50 (APE1 [3]; [7]) [µM] | IC50 (APE1 [4]) [µM] | IC50 (APE1 [2]; [8]) [µM] | Radiotracer Assay (%Activity) (APE1 [5]) [%] | ThO assay signal behaviour (autofluorescence interference) [1] | Concentration response against EndoIV (E. coli Endo IV) | IC50 ([1]; read-out: ThO dye displacement IC50) [µM]
O=C1C=C(c2ccc3cc[nH]c3c2)C[C@@H](c2ccc3c(c2)OCO3)C1 [MLS001060910] | > 57 | > 57 |  | 11.9 | 18.2 | > 57 | 3.2 |  |  |  | 
C[C@@]1(C(=O)O)NCCc2cc(O)c(O)cc21 [NCGC00024700] | > 57 | > 57 |  | 1.8 |  | > 57 |  | 17.1 |  |  | 
CC(=O)[C@]1(O)Cc2c(O)c3c(c(O)c2[C@@H](O[C@H]2C[C@H](N)[C@H](O)[C@H](C)O2)C1)C(=O)c1ccccc1C3=O [NCGC00093976] | 25.1 |  |  | 19.9 | 14.1 | 3.2 |  | 4.6 | strong dose-dependent fluorescence signal increase |  | 
CN(C)C(=O)Nc1ccc(Cl)c(Cl)c1 [NCGC00094525] | > 57 | > 57 |  | 20 | 44.7 | > 57 |  | 36.6 |  |  | 
CC(=O)OCC1=C(C(=O)[O-])N2C(=O)C(NC(=O)CCCC(N)C(=O)O)C2SC1.[Na+] (stereo not drawn) [NCGC00094863] | > 57 | > 57 |  | 22.4 |  | > 57 |  | 41 |  |  | 
O=c1oc2c(O)c(O)cc3c(=O)oc4c(O)c(O)cc1c4c23 [NCGC00094975] | > 57 | 0.1 |  | 0.01 | 0.01 | 31.6 |  | 2.4 |  |  | 
NC(Cc1ccc(O)c(O)c1)C(=O)O (stereo not drawn) [NCGC00095195] | > 57 | > 57 |  | 0.3 | 0.1 | > 57 |  | 28.3 |  |  | 
Oc1cc(O)c2c(c1)OC(c1ccc(O)c(O)c1)C(O)C2 (stereo not drawn) [NCGC00095270] | > 57 | > 57 |  | 3.2 | 2.8 | > 57 |  | 35.9 |  |  | 
O=C1C=CC2=C3c4cc(O)c(O)cc4CC3(O)COC2=C1O (stereo not drawn) [NCGC00095664] | > 57 | 11.2 |  | 0.1 | 0.1 | 15.8 |  | 4.1 |  |  | 
O=c1c(O)c(Br)ccc2c(Br)c(O)c(O)c(O)c12 [NCGC00160279] | > 57 | 1.26 |  | 1.1 | 0.4 | > 57 |  | 37.9 |  |  | 
Cc1ccc2c(=O)c3ccccc3n(CCCN)c2c1C [NCGC00161415] |  | 14.1 |  | 4.5 | 10 | 1.3 |  | 4.6 |  | complete concentration response curves | 
CC(=O)N[C@H]1C(O[C@@H]2O[C@H](C[C@@H](O)[C@H]3O[C@@H](N4CCC(=O)NC4=O)[C@H](O)[C@@H]3O)[C@H](O)[C@H](O)[C@H]2NC(=O)/C=C/CCCCCCCCCCC(C)C)OC(CO)[C@@H](O)[C@@H]1O (stereo partly drawn) [NCGC00161652] | > 57 | > 57 |  | 7.9 | 2.5 | 31.6 |  | 26.5 |  |  | 
Cc1c2c(c(O)c3c(O)cccc13)C(=O)O[C@H]2C1C(N(C)C)C(O)=C(C(N)=O)C(=O)[C@H]1O (stereo partly drawn) [NCGC00163605] | > 57 |  |  | 2 | 1.6 | 2.2 |  | 2.7 | strong dose-dependent fluorescence signal increase |  | 
COc1cc(O)c2c(c1)oc(=O)c1c3cc(O)c(O)cc3oc21 [NCGC00163667] | > 57 | 10 |  | 10 | 4.4 | > 57 |  | 8.4 |  |  | 
COc1cc(N(C)C)cc(CN(C)CCc2ccc([N+](=O)[O-])cc2)c1O [NCGC00165741] | > 57 | > 57 |  | 3.2 | 0.3 | > 57 |  | 10.6 |  |  | 
CCN(CC)c1ccc(C(=C2C=CC(=[N+](CC)Cc3cccc(S(=O)(=O)[O-])c3)C=C2)c2ccc(N(CC)Cc3cccc(S(=O)(=O)O)c3)cc2)cc1 [NCGC00166058] | 28.2 | 35.5 |  | 31.6 | 25.1 | 31.6 |  | 13.4 |  | complete concentration response curves | 
phthalocyanine tetrasulfonate hydrate [NCGC00165867] |  | 0.6 |  | 0.3 | 0.06 | 0.2 |  | 6.2 |  | complete concentration response curves | 0.631
